In patent US20180171411A1, “GFRalpha1 AS A BIOMARKER FOR CISPLATIN-INDUCED CHEMORESISTANCE AND METASTASIS” (THE BOARD OF REGENTS OF THE UNIVERSITY OF TEXAS SYSTEM, priority 2015, published 2018):

System: LC3-II in GFRα1-overexpressing MG-63 cells
Assay: Immunoblot of LC3-II in GFRα1-overexpressing cells
Type: cell-based, human
Settings: 3-MA (10 μM) or Baf (100 nM)
Protocol: FIG. 3. GFRα1-induced autophagy enhances the chemoresistance of osteosarcoma cells induced by cisplatin. (a) Control and GFRα1-deficient MG-63 cells were transiently transfected with a mRFP-GFP tandem fluorescent-tagged LC3 (mRFP-GFP-LC3) vector and then treated with cisplatin (20μM) for 24 hr. Left, representative images of RFP-LC3 and GFP-LC3 puncta. Scale bar, 20 μm. Right, quantitative analysis of the number of yellow puncta and the number of RFP-LC3 puncta in the combined images. The values are represented as a mean±s.d.m. (n=3). ** denotes p<0.05 by t-test. (b) Control and GFRα1-deficient MG-63 cells were treated with cisplatin (20 μM) for 24 hr and then stained with acridine orange. […] Bottom, quantitative analysis of the number of AVOs. […] (c) Control and GFRα1-deficient MG-63 cells were treated with cisplatin (20 μM) for 24 hr and then analyzed by TEM. Top, representative images of autophagic vacuoles (yellow arrows) detected after cisplatin treatment in control MG-63 cells. […] Bottom, quantitative analysis of the number of autophagic vacuoles. […] (e) Quantitative analysis of the number of yellow puncta and the number of RFP-LC3 puncta in control and GFRα1-overexpressing MG-63 cells. […] Bottom, quantitative analysis of the number of AVOs. […] (h) Control and GFRα1-overexpressing MG-63 cells were treated with cisplatin (20 μM) for 24 hr and then analyzed by TEM. […]

## Cn1cnc(N)c2ncnc1-2 [3-MA, 3-methyladenine]
  level of LC3-II expression: reduced
